Measured values as given in article PMC11897524 (Frontiers in Pharmacology, 2025).

How the values were obtained:
STAT5a = STAT5a (Homo sapiens, UniProt P42229); test: Inhibitory effect on BET and STAT family members; format: binding
From the text: (§1) TABLE 4 The inhibitory effect of BST-4 on other members of the BET and STAT families. | column: IC50 (μM)

STAT6 = STAT6 (Homo sapiens, UniProt P42226); test: Inhibitory effect on BET and STAT family members; format: binding
From the text: as §1

BRD3 = BRD3 (Homo sapiens, UniProt Q15059); test: Inhibitory effect on BET and STAT family members; format: binding
From the text: as §1

[1] = Hematology parameters of treated mice; format: in vivo, BALB/c nude mice; settings: BST-4-treated vs vehicle groups
Experimental: (§2) To further investigate the in vivo effects of BST-4, 6–8 weeks male BALB/c nude mice were obtained by Changzhou Cavens Experimental Animal Co., Ltd. (Changzhou, China). The mice were acclimatized to the laboratory environment for a week before the experiment. The housing conditions were maintained at a temperature of 22°C ± 2°C, a relative humidity of 50%–60%, and a 12-h light/dark cycle. 0.1 mL of CAKI-2cell suspension (1 × 10⁶ cells) was subcutaneously injected into the right flank of each mouse. […] The vehicle group was injected with a vehicle solution consisting of 5% DMSO and PBS. The tumor volume of mice was measured every 2 days and calculated according to the formula: (c × c × d)/2, where c and d represent the minimum diameter and maximum diameter, respectively. All animal experiments were performed and approved by the Ethics Committee of China Pharmaceutical University.
FIGURE 12 Hematology parameters of mice in the BST-4-treated groups and vehicle groups. (A) White blood cell (WBC); (B) Red blood cells (RBC); (C) Platelets (PLT); (D) Hemoglobin (HGB). Data are presented as the mean ± SD, n = 5.

c-myc mRNA and Ki67 mRNA = test: RT-qPCR on xenograft tumor tissues; format: in vivo, BALB/c nude mice; settings: xenograft tumor tissue
Experimental: This method was performed as previously reported. Briefly, the CAKI-2 cells were seeded into 6-well plates and cultured overnight, and treated with different concentrations of BST-4 for 24 h. RNA was extracted from cells and tissues using Trizol reagent and reverse transcribed using PrimeScriptRTase. cDNA was used for RT-qPCR SYBR Green assays (Takara). The relative levels of c-myc mRNA were calculated as [(c-myc mRNA in the treatment group)/(β-actin mRNA in the treatment group)]/[(c-myc mRNA in the control group)/(β-actin mRNA in the control group).
as §2, with “All animal experiments were performed and approved by the Ethics Committee of China Pharmaceutical University.” left out

STAT3 = STAT3 (Homo sapiens, UniProt P40763); test: STAT3 binding inhibition assay; design: purchased Abcam
FGFR2 = FGFR2 (Homo sapiens, UniProt P21802); test: SelectScreen Z′-LYTE kinase assay; format: biochemical
Experimental: (§3) The kinase selectivity profile of BST-4 was performed by the SelectScreen kinase profiling service (Thermo Fisher Scientific). Kinase selectivity assay was performed using Z′-LYTE ™ screening protocol kit. Briefly, the test compounds were screened in 1% DMSO (final). For 10-point titrations, perform a 3-fold dilution starting at a starting concentration of 50 µM. Then 2.5 µL 4× test compound, 2.4 µL kinase buffer, 5 µL 2× kinase mixture and 2.5 µL 4× ATP solution was added in black 384-well plate. After shaking for 30 s, the plates were incubated for 60 min at room temperature. Add developing reagent solution and shake the plate for 30 s, then incubate for 1 h at room temperature. The Fluorescence intensity per well was read using a fluorescence plate reader. SelectScreen® Kinase Profiling Service used XLfit from IDBS. The dose response curve was curve fit to model number 205 (sigmoidal dose-response model) and inhibition rates were calculated. 50% inhibition was used as a activity threshold. IC50 values were calculated based on curve fitting.

MST1R = MST1R (Homo sapiens, UniProt Q04912); test: SelectScreen Z′-LYTE kinase assay; format: biochemical
MST1R, sequence (Q04912 25-1400): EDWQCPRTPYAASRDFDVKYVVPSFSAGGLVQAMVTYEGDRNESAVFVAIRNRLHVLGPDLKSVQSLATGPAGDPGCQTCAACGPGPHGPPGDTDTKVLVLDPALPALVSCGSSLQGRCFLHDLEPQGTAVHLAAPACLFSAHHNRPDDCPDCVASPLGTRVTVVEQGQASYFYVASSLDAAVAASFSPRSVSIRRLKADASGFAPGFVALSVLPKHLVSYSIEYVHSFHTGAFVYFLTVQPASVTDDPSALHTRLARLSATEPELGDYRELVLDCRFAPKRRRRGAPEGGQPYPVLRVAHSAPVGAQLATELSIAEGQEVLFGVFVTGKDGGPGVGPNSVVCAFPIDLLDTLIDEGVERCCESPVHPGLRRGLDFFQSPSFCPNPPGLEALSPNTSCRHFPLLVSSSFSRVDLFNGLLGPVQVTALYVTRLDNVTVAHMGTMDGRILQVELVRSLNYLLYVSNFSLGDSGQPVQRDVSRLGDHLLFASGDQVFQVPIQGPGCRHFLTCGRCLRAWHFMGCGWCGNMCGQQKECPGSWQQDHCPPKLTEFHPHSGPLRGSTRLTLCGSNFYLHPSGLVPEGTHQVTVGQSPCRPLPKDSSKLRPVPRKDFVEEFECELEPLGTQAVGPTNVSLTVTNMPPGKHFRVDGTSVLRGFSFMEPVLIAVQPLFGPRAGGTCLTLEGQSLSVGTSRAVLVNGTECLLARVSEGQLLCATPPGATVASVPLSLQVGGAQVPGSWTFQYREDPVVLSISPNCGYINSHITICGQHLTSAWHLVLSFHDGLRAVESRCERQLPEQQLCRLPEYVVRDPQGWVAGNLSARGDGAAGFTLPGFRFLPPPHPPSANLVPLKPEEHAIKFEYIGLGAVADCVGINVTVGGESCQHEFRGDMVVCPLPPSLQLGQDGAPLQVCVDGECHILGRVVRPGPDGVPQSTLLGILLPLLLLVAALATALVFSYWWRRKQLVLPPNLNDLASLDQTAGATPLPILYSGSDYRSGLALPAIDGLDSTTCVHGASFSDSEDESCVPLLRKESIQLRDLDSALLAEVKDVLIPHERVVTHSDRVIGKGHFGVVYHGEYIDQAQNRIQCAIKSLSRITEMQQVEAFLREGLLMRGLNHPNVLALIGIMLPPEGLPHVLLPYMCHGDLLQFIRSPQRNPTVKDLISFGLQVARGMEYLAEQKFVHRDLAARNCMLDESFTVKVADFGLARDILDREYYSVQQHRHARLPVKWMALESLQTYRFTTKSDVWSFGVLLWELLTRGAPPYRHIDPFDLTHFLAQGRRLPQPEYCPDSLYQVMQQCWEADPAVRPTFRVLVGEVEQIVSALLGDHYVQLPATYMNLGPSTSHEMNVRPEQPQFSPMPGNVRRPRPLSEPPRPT
Experimental: as §3

ALK = ALK (Homo sapiens, UniProt Q9UM73); test: SelectScreen Z′-LYTE kinase assay; format: biochemical
Experimental: as §3

PTK2B = PTK2B (Homo sapiens, UniProt Q14289); test: SelectScreen Z′-LYTE kinase assay; format: biochemical
Experimental: as §3

BTK = BTK (Homo sapiens, UniProt Q06187); test: SelectScreen Z′-LYTE kinase assay; format: biochemical
Experimental: as §3

DDR2 = DDR2 (Homo sapiens, UniProt Q16832); test: SelectScreen Z′-LYTE kinase assay; format: biochemical
Experimental: as §3

LYN = LYN (Homo sapiens, UniProt P07948); test: SelectScreen Z′-LYTE kinase assay; format: biochemical
LYN, sequence (P07948 whole entry): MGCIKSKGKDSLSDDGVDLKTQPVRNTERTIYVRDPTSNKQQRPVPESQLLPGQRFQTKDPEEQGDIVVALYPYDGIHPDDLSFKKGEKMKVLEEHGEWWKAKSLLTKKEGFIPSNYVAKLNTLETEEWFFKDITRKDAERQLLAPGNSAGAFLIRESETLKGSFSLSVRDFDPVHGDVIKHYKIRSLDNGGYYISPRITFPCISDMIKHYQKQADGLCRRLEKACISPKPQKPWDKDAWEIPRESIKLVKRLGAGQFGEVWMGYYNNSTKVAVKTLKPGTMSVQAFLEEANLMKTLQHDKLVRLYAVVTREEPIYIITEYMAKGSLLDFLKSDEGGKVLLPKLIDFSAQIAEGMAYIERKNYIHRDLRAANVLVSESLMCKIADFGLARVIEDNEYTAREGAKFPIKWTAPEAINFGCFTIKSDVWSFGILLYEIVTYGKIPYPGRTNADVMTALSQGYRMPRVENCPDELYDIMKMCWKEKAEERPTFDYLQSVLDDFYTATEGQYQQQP
Experimental: as §3

PTK6 = PTK6 (Homo sapiens, UniProt Q13882); test: SelectScreen Z′-LYTE kinase assay; format: biochemical
Experimental: as §3

CSK = CSK (Homo sapiens, UniProt P41240); test: SelectScreen Z′-LYTE kinase assay; format: biochemical
Experimental: as §3

JAK3 = JAK3 (Homo sapiens, UniProt P52333); test: SelectScreen Z′-LYTE kinase assay; format: biochemical
Experimental: as §3

TEK = TEK (Homo sapiens, UniProt Q02763); test: SelectScreen Z′-LYTE kinase assay; format: biochemical
TEK, sequence (Q02763 23-1124): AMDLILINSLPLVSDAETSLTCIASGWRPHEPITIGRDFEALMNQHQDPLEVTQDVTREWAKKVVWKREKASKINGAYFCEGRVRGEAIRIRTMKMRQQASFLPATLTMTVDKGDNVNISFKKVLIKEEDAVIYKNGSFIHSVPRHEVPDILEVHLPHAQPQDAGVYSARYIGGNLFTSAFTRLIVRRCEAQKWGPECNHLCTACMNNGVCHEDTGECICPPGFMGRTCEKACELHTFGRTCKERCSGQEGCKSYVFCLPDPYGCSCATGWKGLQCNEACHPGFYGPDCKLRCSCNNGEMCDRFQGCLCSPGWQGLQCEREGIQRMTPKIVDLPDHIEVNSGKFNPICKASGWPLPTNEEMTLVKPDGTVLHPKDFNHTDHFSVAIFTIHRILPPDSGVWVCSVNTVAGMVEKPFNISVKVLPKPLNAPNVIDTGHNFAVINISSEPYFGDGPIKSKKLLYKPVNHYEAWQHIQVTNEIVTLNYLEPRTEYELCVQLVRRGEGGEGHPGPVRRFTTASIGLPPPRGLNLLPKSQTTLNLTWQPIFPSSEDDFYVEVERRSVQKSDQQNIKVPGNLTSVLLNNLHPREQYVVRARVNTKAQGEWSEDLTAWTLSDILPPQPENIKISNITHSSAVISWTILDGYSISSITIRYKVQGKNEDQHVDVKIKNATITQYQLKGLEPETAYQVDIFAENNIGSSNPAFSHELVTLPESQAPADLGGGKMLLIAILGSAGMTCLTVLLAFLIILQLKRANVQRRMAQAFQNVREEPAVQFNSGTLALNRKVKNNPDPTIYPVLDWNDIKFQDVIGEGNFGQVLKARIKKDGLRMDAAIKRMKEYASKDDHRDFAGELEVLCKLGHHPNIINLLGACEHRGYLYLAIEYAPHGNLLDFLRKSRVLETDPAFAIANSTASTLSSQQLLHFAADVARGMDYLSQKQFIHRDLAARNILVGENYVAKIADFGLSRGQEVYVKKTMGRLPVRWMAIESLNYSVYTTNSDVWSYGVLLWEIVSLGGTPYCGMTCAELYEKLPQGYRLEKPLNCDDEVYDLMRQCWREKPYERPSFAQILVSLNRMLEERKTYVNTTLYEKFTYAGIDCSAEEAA
Experimental: as §3

AXL = AXL (Homo sapiens, UniProt P30530); test: SelectScreen Z′-LYTE kinase assay; format: biochemical
Experimental: as §3

NTRK1 = NTRK1 (Homo sapiens, UniProt P04629); test: SelectScreen Z′-LYTE kinase assay; format: biochemical
Experimental: as §3

ERBB2 = ERBB2 (Homo sapiens, UniProt P04626); test: SelectScreen Z′-LYTE kinase assay; format: biochemical
Experimental: as §3

DDR1 = DDR1 (Homo sapiens, UniProt Q08345); test: SelectScreen Z′-LYTE kinase assay; format: biochemical
DDR1, sequence (Q08345 19-913): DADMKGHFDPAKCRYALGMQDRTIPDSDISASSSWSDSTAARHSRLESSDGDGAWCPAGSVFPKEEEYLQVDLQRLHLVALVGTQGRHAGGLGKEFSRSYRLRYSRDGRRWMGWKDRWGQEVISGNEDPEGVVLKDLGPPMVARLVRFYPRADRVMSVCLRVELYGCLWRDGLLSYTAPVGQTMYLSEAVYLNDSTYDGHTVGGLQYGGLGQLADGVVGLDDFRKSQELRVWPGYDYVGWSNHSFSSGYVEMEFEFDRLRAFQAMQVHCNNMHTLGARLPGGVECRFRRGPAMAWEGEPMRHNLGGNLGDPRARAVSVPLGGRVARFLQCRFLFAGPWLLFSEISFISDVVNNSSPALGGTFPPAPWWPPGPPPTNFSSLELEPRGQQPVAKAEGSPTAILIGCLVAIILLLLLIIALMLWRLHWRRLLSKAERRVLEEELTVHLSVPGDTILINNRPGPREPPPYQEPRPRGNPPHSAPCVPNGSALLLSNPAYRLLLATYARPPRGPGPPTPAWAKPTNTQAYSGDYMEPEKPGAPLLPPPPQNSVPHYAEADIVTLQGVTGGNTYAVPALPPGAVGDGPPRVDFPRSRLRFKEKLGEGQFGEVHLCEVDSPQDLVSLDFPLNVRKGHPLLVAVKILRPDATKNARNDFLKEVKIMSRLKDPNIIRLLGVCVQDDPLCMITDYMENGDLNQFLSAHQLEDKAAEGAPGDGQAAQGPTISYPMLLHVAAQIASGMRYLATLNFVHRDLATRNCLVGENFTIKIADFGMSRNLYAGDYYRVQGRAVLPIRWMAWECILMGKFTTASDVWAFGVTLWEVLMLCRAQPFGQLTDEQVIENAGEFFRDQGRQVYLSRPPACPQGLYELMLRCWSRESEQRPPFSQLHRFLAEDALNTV
Experimental: as §3

FGFR1 = FGFR1 (Homo sapiens, UniProt P11362); test: SelectScreen Z′-LYTE kinase assay; format: biochemical
FGFR1, sequence (P11362 22-822): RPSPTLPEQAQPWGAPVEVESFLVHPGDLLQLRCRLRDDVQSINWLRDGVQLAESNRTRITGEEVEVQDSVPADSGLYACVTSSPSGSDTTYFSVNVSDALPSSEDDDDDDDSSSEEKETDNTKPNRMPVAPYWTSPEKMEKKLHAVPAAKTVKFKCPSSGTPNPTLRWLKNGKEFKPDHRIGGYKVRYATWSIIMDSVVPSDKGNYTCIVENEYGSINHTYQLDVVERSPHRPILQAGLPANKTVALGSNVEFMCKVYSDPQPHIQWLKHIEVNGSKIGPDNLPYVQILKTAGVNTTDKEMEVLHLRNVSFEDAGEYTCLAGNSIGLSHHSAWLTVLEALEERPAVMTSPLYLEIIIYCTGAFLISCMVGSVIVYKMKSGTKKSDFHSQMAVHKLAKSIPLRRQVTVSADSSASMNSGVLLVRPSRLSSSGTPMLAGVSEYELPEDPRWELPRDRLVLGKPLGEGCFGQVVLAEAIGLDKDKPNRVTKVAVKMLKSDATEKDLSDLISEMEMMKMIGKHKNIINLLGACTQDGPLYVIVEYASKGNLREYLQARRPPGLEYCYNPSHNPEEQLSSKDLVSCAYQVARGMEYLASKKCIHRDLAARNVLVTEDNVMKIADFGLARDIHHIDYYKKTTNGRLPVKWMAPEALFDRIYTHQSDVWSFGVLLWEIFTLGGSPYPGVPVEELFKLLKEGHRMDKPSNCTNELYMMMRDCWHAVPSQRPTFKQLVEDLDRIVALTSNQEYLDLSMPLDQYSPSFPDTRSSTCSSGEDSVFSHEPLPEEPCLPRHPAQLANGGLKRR
Experimental: as §3

FLT1 = FLT1 (Homo sapiens, UniProt P17948); test: SelectScreen Z′-LYTE kinase assay; format: biochemical
Experimental: as §3

In the case of `CCS(=O)(=O)Cc1cnc(Oc2c(F)cc(F)cc2OCCCCOc2ccc(/C=C/c3cc(OC)cc(OC)c3)cc2)c(-c2cc(C)c3c(=O)[nH]ccn23)c1` [BST-4], the IC50 (STAT5a) is reported as greater than 10 µM, the IC50 (STAT6) is reported as greater than 10 µM and the IC50 (BRD3) is reported as greater than 10 µM. The “levels of representative hematological markers (WBC, RBC, PLT, HGB) vs vehicle” value [1] was “no significant differences”, the “Ki67 mRNA expression level in tumor tissues in vivo” value (c-myc mRNA and Ki67 mRNA) was “downregulated” and the “c-myc mRNA expression level in tumor tissues in vivo” value (c-myc mRNA and Ki67 mRNA) was “downregulated”. For the same compound, the IC50 (STAT3) was 8.07 ± 0.51 nM, the “STAT3 inhibition relative to CJ-1383” value (STAT3; IC50 ratio vs CJ-1383) was “about 115 fold” and the IC50 (FGFR2) was greater than 10 µM. For the same compound, the inhibition at 1 µM (FGFR2) was 0.45%, the IC50 (MST1R) was greater than 10 µM and the inhibition at 1 µM (MST1R) was 5.02%. The IC50 (ALK) was greater than 10 µM, the inhibition at 1 µM (ALK) was 0.72% and the IC50 (PTK2B) was greater than 10 µM. The inhibition at 1 µM (PTK2B) was 0.73%, the IC50 (BTK) was greater than 10 µM and the inhibition at 1 µM (BTK) was 0.11%. The IC50 (DDR2) was greater than 10 µM, the inhibition at 1 µM (DDR2) was 0.7% and the IC50 (LYN) was greater than 10 µM. For the same compound, the inhibition at 1 µM (LYN) was 1.96%, the IC50 (PTK6) was greater than 10 µM and the inhibition at 1 µM (PTK6) was 2.34%. It also gave an IC50 (CSK) greater than 10 µM, an inhibition at 1 µM (CSK) of 0.74% and an IC50 (JAK3) greater than 10 µM. The inhibition at 1 µM (JAK3) was 0.39%, the IC50 (TEK) was greater than 10 µM and the inhibition at 1 µM (TEK) was 4.16%. It also gave an IC50 (AXL) greater than 10 µM, an inhibition at 1 µM (AXL) of 1.83% and an IC50 (NTRK1) greater than 10 µM. For the same compound, the inhibition at 1 µM (NTRK1) was 0.67%, the IC50 (ERBB2) was greater than 10 µM and the inhibition at 1 µM (ERBB2) was 4.43%. For the same compound, the IC50 (DDR1) was greater than 10 µM, the inhibition at 1 µM (DDR1) was 3.63% and the IC50 (FGFR1) was greater than 10 µM. The inhibition at 1 µM (FGFR1) was 0.59%, the IC50 (FLT1) was greater than 10 µM and the inhibition at 1 µM (FLT1) was 0.14%.
